In patent US7544700B2, “Pharmaceutically active sulfonamide derivatives bearing both lipophilic and ionisable moieties as inhibitors of protein JunKinases” (Laboratoires Serono SA, priority 2000, dated 2009):

Tested on: IL-2 release by (PMA+Ionomycin)-stimulated Jurkat cells
Assay: IL-2 release assay (IL-2 ELISA)
Type: cell-based
Settings: Homo sapiens; PMA + Ionomycine stimulated Jurkat cells
Protocol: The Ability of the Compounds According to Formula I to Modulate the Inflammatory Response by Inhibiting the Release of IL-2 was Assessed Using the Following Protocol
JNK pathway activation triggers the production of inflammatory cytokines such as IL-2. JNK can be activated by external stimuli such as PMA and Ionomycine and IL-2 production can be measured via an IL-2 ELISA test. Comparative measurements with and without the compounds of the invention according to the following protocol measure the ability of the compounds to prevent to stress-mediated IL-2 release.
Jurkat cells, a human T cell leukemia cell line (American Type Culture Collection # TIB 152) were cultured in RPMI 1640 medium (Gibco, BRL) supplemented with 10% of […] fetal calf serum (FCS), Glutamine and Penstrep. The cell suspension in the medium is diluted to give 2.10^6 cells/mL. The cells were plated (2.10^5 cells/well) on a 96-well plate containing different concentrations of a compound according to formula I (final concentration of compounds, 10, 3, 1, 0.3, 0.1 μM). This mixture is incubated 30 minutes at 37° C. in a humidified CO2 atmosphere. Cells were then treated with 10 μl PMA (Phorbolmyristate-13 Acetate-12)+Ionomycine (0.1 μM and 1 μM final concentration) in all wells except negative control. In wells without compounds, 10 μl of RPMI 2% DMSO (=0.1% final) is added. Cells are incubated 24 hours at 37° C. and then the supernatant harvested (freeze at −20° C. if not used the same day) prior to performing IL-2 ELISA test on the supernatant.
IL-2 release into the medium by (PMA+Iononomycin)-stimulated Jurkat cells, in presence or absence of test compounds may be assayed by ELISA. Following the procedure described below.
Monoclonal anti-human IL-2 antibody (MAB602) (capture), biotinylated anti-human IL-2 antibody (BAF202) (detection) and recombinant human IL-2 (202-IL-010) (standard) from From R&D Systems are used. […]
• 1. […] Optical density is measured using a microtiter plate reader set to 450 nm with correction at 570 nm.

For `COc1cccc(C(=O)NCc2ccc(S(=O)(=O)N3CCC(NCc4ccc(C(F)(F)F)cc4)CC3)s2)c1` [Example 1, 3-Methoxy-N-{[5-({4-[(4-trifluoromethylbenzyl)amino]piperidin-1-yl}sulfonyl)thien-2-yl]methyl}benzamide], the IC50 was < 800 nM.
